Experimental data from patent US10487093B2, “Heterocyclic compounds, in particular 2-oxo-4,4,5,5,6,6,7,7-octahydrobenzoxazole derivatives, and their use as antibacterial compounds” (priority 2016, dated 2019).

tested on: Gram-negative and Gram-positive bacterial strains; assay type: cell-based; details: including those which are resistant to fluoroquinolone antibiotics and other antibiotics

Structure (SMILES)	activity against all strains of A. baumannii and E. coli tested (in words)
COc1cnc2ccc(=O)n(CCN[C@H]3CC[C@H]4[C@H](C3)OC(=O)N4c3ccc4c(n3)NC(=O)CS4)c2c1 [Compound 81, 1-(2-{[(3aS,6S,7aS)-2-oxo-3-{3-oxo-2H,3H,4H-pyrido[3,2-b][1,4]thiazin-6-yl}-octahydro-1,3-benzoxazol-6-yl]amino}ethyl)-7-methoxy-1,2-dihydro-1,5-naphthyridin-2-one]	excellent activity
O=C1COc2ccc(N3C(=O)O[C@H]4C[C@@H](NCCCn5c(=O)cnc6cc(F)c(F)cc65)CC[C@@H]43)nc2N1 [Compound 90, 1-(3-{[(3aS,6S,7aS)-2-oxo-3-{3-oxo-2H,3H,4H-pyrido[3,2-b][1,4]oxazin-6-yl}-octahydro-1,3-benzoxazol-6-yl]amino}propyl)-6,7-difluoro-1,2-dihydroquinoxalin-2-one]	excellent activity
O=C1COc2ccc(N3C(=O)O[C@H]4C[C@@H](NCCn5c(=O)ccc6ccc(OC(F)F)cc65)CC[C@@H]43)nc2N1 [Compound 101, 1-(2-{[(3aS,6S,7aS)-2-oxo-3-{3-oxo-2H,3H,4H-pyrido[3,2-b][1,4]oxazin-6-yl}-octahydro-1,3-benzoxazol-6-yl]amino}ethyl)-7-(difluoromethoxy)-1,2-dihydro quinolin-2-one]	excellent activity
N#Cc1ccc2ncc(=O)n(CCN[C@@H]3CC[C@@H]4[C@@H](C3)OC(=O)N4c3ccc4c(n3)NC(=O)CO4)c2c1 [Compound 68, 4-(2-{[(3aR,6R,7aR)-2-oxo-3-{3-oxo-2H,3H,4H-pyrido[3,2-b][1,4]oxazin-6-yl}-octahydro-1,3-benzoxazol-6-yl]amino}ethyl)-3-oxo-3,4-dihydroquinoxaline-6-carbonitrile]	excellent activity
COc1ccc2ccc(=O)n(CCCN[C@H]3CC[C@H]4[C@H](C3)OC(=O)N4c3ccc4c(n3)NC(=O)CS4)c2n1 [Compound 85, 1-(3-{[(3aS,6S,7aS)-2-oxo-3-{3-oxo-2H,3H,4H-pyrido[3,2-b][1,4]thiazin-6-yl}-octahydro-1,3-benzoxazol-6-yl]amino}propyl)-7-methoxy-1,2-dihydro-1,8-naphthyridin-2-one]	excellent activity
COc1ccc2ccc(=O)n(CCN[C@H]3CC[C@H]4[C@@H](C3)OC(=O)N4c3ccc4c(n3)NC(=O)CO4)c2n1 [Compound 4, 1-(2-{[(3aS,6S,7aR)-2-oxo-3-{3-oxo-2H,3H,4H-pyrido[3,2-b][1,4]oxazin-6-yl}-octahydro-1,3-benzoxazol-6-yl]amino}ethyl)-7-methoxy-1,2-dihydro-1,8-naphthyridin-2-one]	excellent activity
O=C1COc2ccc(N3C(=O)O[C@H]4C[C@@H](NCCn5c(=O)cnc6cc(F)c(F)cc65)CC[C@@H]43)nc2N1 [Compound 34, 1-(2-{[(3aS,6S,7aS)-2-oxo-3-{3-oxo-2H,3H,4H-pyrido[3,2-b][1,4]oxazin-6-yl}-octahydro-1,3-benzoxazol-6-yl]amino}ethyl)-6,7-difluoro-1,2-dihydroquinoxalin-2-one]	excellent activity
N#Cc1ccc2ccc(=O)n(CCN[C@H]3CC[C@H]4[C@H](C3)OC(=O)N4c3ccc4c(n3)NC(=O)CO4)c2c1 [Compound 56, 1-(2-{[(3aS,6S,7aS)-2-oxo-3-{3-oxo-2H,3H,4H-pyrido[3,2-b][1,4]oxazin-6-yl}-octahydro-1,3-benzoxazol-6-yl]amino}ethyl)-2-oxo-1,2-dihydroquinoline-7-carbonitrile]	excellent activity
COc1ccc2ncc(=O)n(CCN[C@@H]3CC[C@@H]4[C@@H](C3)OC(=O)N4c3ccc4c(n3)NC(=O)CO4)c2c1 [Compound 21, 1-(2-{[(3aR,6R,7aR)-2-oxo-3-{3-oxo-2H,3H,4H-pyrido[3,2-b][1,4]oxazin-6-yl}-octahydro-1,3-benzoxazol-6-yl]amino}ethyl)-7-methoxy-1,2-dihydroquinoxalin-2-one]	excellent activity
O=C1COc2ccc(N3C(=O)O[C@@H]4C[C@H](NCCCn5c(=O)cnc6cc(F)c(F)cc65)CC[C@H]43)nc2N1 [Compound 88, 1-(3-{[(3aR,6R,7aR)-2-oxo-3-{3-oxo-2H,3H,4H-pyrido[3,2-b][1,4]oxazin-6-yl}-octahydro-1,3-benzoxazol-6-yl]amino}propyl)-6,7-difluoro-1,2-dihydroquinoxalin-2-one]	excellent activity
N#Cc1cnc2ccc(=O)n(CCN[C@H]3CC[C@H]4[C@H](C3)OC(=O)N4c3ccc4c(n3)NC(=O)CO4)c2c1 [Compound 55, 5-(2-{[(3aS,6S,7aS)-2-oxo-3-{3-oxo-2H,3H,4H-pyrido[3,2-b][1,4]oxazin-6-yl}-octahydro-1,3-benzoxazol-6-yl]amino}ethyl)-6-oxo-5,6-dihydro-1,5-naphthyridine-3-carbonitrile]	excellent activity
O=C1COc2ccc(N3C(=O)O[C@@H]4C[C@@H](NCCn5c(=O)cnc6cc(F)c(F)cc65)CC[C@@H]43)nc2N1 [Compound 22, 1-(2-{[(3aS,6S,7aR)-2-oxo-3-{3-oxo-2H,3H,4H-pyrido[3,2-b][1,4]oxazin-6-yl}-octahydro-1,3-benzoxazol-6-yl]amino}ethyl)-6,7-difluoro-1,2-dihydroquinoxalin-2-one]	excellent activity
COc1ccc2ccc(=O)n(CCN[C@H]3CC[C@H]4[C@H](C3)OC(=O)N4c3ccc4c(n3)NC(=O)CO4)c2c1 [Compound 102, 1-(2-{[(3aS,6S,7aS)-2-oxo-3-{3-oxo-2H,3H,4H-pyrido[3,2-b][1,4]oxazin-6-yl}-octahydro-1,3-benzoxazol-6-yl]amino}ethyl)-7-methoxy-1,2-dihydroquinolin-2-one]	excellent activity
COc1ccc2ncc(=O)n(CCN[C@H]3CCC4C(C3)OC(=O)N4c3ccc4c(n3)NC(=O)CO4)c2n1 (stereo in doubt) [Compound 45, (3aS,6S,7aS)-6-[(2-{6-methoxy-3-oxo-3H,4H-pyrido[2,3-b]pyrazin-4-yl}ethyl)amino]-3-{3-oxo-2H,3H,4H-pyrido[3,2-b][1,4]oxazin-6-yl}-octahydro-1,3-benzoxazol-2-one]	excellent activity
N#Cc1cccc(-c2cccc(CN[C@H]3CC[C@H]4[C@H](C3)OC(=O)N4c3ccc4c(n3)NC(=O)CO4)n2)c1 [Compound 105, 3-[6-({[(3aS,6S,7aS)-2-oxo-3-{3-oxo-2H,3H,4H-pyrido[3,2-b][1,4]oxazin-6-yl}-octahydro-1,3-benzoxazol-6-yl]amino}methyl)pyridin-2-yl]benzonitrile]	excellent activity
COc1cnc2ccc(=O)n(CCN[C@@H]3CC[C@@H]4[C@@H](C3)OC(=O)N4c3ccc4c(n3)NC(=O)CO4)c2c1 [Compound 69, 1-(2-{[(3aR,6R,7aR)-2-oxo-3-{3-oxo-2H,3H,4H-pyrido[3,2-b][1,4]oxazin-6-yl}-octahydro-1,3-benzoxazol-6-yl]amino}ethyl)-7-methoxy-1,2-dihydro-1,5-naphthyridin-2-one]	excellent activity
COc1cccc(-c2cccc(CN[C@@H]3CC[C@@H]4[C@@H](C3)OC(=O)N4c3ccc4c(n3)NC(=O)CO4)c2)n1 [Compound 80, (3aR,6R,7aR)-6-({[3-(6-methoxypyridin-2-yl)phenyl]methyl}amino)-3-{3-oxo-2H,3H,4H-pyrido[3,2-b][1,4]oxazin-6-yl}-octahydro-1,3-benzoxazol-2-one]	excellent activity
N#Cc1cnc2ccc(=O)n(CCN[C@H]3CC[C@H]4[C@H](C3)OC(=O)N4c3ccc4c(n3)NC(=O)CS4)c2c1 [Compound 77, 5-(2-{[(3aS,6S,7aS)-2-oxo-3-{3-oxo-2H,3H,4H-pyrido[3,2-b][1,4]thiazin-6-yl}-octahydro-1,3-benzoxazol-6-yl]amino}ethyl)-6-oxo-5,6-dihydro-1,5-naphthyridine-3-carbonitrile]	excellent activity
